Measurements: US9120812B2, “Pyrimidooxazocine derivatives as mTOR-inhibitors” (SANOFI, priority 2012, dated 2015)

Columns and labels:
[1] = target: mTOR (human recombinant aa mTOR 1360-2549) (Homo sapiens (Human), UniProt P42345); assay: mTOR enzymatic test by TR-FRET (phosphorylation of GFP-4EBP1); type: biochemical
Procedure: Model 1: mTOR Enzymatic Test by TR-FRET (Time-resolved Fluorescence Resonance Energy Transfer).
The test detects the phosphorylation of the substrate GFP-4EBP1 using a terbium-labelled antibody that is specific for the phospho-Thr46 epitope. Binding of the Tb-antibody to the phosphorylated GFP peptide allows the transfer of energy from Tb, excited at 340 nm, to GFP with an increase in the fluorescence emission of the GFP at 520 nm. […] The mixture is incubated for 30 minutes at room temperature. 10 μl of solution are taken up and the reaction is quenched by adding 10 μl of Tb-antibody solution (Invitrogen PV4757)/EDTA (2 nM Tb-Ac and 10 mM EDTA final). After 60 minutes at room temperature, the fluorescence at 490 nm, from the Tb emission, and at 520 nm, from the GFP emission, is measured in a BMG PHERAstar reader equipped with a Lanthascreen™ filter (excitation at 340 nm, emission at 490 and 520 nm). The results are given in the form of the 520/490 ratio.

PI3Kα (p110α/p85α) = PI3Kα (p110α/p85α) (Homo sapiens (Human), UniProt P42336); assay: PI3Kα enzymatic test by measuring the consumption of ATP; type: biochemical
Procedure: Model 2: PI3Kα Enzymatic Test by Measuring the Consumption of ATP.
The test uses a lucifeurerin/luciferase system to measure the concentration of ATP and its consumption during the enzymatic reaction. The test is performed in 96-well format (Corning/Costar 96 black flat-bottomed half-wells plate, ref. 3694) in a total volume of 30 μl.
To 1 μl of inhibitor in 100% DMSO are added (final concentrations) 50 μM of the substrate PIP2 ((L-α-phosphatidyl-D-myoinositol 4,5-bisphosphate, Echelon 117P-4516-0500), 2 μM of ATP and 1.7 μg/ml of PI3Kα, (p110α/p85α, Invitrogen PV4788) in a buffer of Tris/HCl 50 mM pH 7.5, EGTA 1 mM, MgCl2 10 mM, Chaps 0.03%, 1 mM DTT). After 90 minutes, the reaction is quenched by adding 20 μl/well of KinaseGlo reagent (Promega V6713). After 10 minutes in the dark, the luminescence is read on the PHERAStar microplate reader (reading at 0.8 sec/well).
The IC50 values are determined by the preparation of successive threefold dilutions on at least a scale of 10 000.

U87MG tumour cells = assay: Test of in vitro proliferation of U87MG tumour cells; type: cell-based; conditions: Homo sapiens, U-87 MG, 72 h, U87MG cells, 72 hours; read-out: U87 Cell Proliferation IC50
Procedure: Model 4: Test of in vitro Proliferation of U87MG Tumour Cells.
The cell growth is determined with the reagent CellTiter 96 AQueous One Solution Cell Proliferation Assay from Promega (Cat. No. G3581).

Akt-pS473 in U87MG cells = conditions: Homo sapiens, U-87 MG; for IC50: read-out: U87 Akt-pS473 % Inhibition or IC50, nM (IC50), U87MG cells; for inhibition at 1 µM: read-out: U87 Akt-pS473 % Inhibition

Sequence of mTOR (human recombinant aa mTOR 1360-2549) (P42345 1360-2549): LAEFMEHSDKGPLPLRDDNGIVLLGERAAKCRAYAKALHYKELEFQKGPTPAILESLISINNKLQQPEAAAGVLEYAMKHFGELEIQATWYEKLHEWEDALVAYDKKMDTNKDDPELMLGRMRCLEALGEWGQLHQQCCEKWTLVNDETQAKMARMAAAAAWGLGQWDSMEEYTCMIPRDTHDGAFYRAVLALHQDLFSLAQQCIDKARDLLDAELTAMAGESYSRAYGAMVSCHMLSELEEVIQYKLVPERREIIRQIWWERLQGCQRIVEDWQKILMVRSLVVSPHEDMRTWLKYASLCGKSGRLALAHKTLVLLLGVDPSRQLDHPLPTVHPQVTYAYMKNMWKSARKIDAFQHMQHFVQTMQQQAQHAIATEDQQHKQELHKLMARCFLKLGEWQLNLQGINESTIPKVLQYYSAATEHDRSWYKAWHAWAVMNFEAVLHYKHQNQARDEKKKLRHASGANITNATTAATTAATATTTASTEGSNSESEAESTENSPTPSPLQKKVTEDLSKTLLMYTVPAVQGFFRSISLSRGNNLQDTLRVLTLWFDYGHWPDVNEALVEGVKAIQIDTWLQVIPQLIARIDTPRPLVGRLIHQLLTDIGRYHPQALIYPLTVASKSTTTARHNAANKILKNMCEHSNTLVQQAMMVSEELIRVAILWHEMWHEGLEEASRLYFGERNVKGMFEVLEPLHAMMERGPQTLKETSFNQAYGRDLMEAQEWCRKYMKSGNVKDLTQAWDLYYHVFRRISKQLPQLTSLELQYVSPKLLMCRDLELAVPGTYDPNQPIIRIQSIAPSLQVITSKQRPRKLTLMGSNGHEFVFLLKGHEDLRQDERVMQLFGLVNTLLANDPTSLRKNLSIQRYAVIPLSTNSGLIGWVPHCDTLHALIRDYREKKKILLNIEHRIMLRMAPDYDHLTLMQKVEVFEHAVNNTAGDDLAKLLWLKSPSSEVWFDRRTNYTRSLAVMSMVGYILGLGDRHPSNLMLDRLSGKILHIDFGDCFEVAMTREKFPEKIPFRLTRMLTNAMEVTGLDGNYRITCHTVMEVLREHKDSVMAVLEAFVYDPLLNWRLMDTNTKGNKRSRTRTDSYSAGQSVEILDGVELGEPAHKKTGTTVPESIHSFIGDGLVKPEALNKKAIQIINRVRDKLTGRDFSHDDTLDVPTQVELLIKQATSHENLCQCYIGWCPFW
Sequence of PI3Kα (p110α/p85α) (P42336 whole entry): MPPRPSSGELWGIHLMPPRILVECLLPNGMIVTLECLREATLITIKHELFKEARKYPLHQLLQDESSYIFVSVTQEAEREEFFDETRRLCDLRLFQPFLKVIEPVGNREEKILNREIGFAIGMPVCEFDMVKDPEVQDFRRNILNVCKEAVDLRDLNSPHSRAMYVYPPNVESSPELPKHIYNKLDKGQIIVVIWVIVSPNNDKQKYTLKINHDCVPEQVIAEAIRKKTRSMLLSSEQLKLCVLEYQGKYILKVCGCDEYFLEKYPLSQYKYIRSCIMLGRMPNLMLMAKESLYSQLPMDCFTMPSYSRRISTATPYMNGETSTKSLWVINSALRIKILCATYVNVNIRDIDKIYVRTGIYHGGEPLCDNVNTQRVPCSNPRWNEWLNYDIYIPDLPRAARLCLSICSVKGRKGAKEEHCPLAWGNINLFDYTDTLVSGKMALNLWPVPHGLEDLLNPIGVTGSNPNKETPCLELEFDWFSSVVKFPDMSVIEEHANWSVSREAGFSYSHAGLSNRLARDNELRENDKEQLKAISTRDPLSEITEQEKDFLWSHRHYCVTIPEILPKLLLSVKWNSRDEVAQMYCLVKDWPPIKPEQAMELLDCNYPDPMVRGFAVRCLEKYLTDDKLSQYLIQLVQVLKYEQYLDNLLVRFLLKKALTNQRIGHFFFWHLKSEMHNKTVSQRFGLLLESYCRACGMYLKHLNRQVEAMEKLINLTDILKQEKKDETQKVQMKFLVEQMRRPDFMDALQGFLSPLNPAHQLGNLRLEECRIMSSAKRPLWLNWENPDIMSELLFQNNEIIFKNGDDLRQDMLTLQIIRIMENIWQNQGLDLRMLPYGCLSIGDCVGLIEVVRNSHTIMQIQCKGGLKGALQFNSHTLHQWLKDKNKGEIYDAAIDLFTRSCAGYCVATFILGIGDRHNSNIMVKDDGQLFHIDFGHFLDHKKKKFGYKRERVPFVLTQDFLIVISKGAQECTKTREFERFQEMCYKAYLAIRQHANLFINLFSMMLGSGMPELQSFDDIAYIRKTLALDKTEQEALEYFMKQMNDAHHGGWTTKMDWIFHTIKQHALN
Sequence of PI3Kα (p110α/p85α) (P27986 whole entry partner): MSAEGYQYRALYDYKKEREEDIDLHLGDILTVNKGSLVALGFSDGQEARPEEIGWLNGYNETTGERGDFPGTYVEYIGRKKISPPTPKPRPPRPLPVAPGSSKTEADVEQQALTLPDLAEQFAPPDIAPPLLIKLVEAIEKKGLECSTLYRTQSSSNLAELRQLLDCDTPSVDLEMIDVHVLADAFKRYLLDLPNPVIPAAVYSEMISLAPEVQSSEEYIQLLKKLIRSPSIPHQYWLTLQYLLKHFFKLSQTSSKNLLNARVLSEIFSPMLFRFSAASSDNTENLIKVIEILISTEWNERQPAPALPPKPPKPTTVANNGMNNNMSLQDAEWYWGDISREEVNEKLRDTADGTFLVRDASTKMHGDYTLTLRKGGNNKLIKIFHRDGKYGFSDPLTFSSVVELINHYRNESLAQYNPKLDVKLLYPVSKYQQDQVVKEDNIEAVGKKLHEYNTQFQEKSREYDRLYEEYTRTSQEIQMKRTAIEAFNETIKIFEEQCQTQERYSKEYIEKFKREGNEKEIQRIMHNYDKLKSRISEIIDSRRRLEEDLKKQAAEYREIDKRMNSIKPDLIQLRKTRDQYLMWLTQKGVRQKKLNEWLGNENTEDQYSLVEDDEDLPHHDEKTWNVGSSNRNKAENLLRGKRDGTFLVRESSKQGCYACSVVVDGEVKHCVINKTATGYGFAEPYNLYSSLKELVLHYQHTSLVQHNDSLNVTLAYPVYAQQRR

SMILES	IC50 [1]	PI3Ka IC50 (PI3Kα (p110α/p85α))	IC50 (U87MG tumour cells)	IC50 (Akt-pS473 in U87MG cells)	inhibition at 1 µM (Akt-pS473 in U87MG cells)
CNC(=O)Nc1ccc(-c2nc(N3C4CCC3COC4)nc3c2C(=O)N(C)CC(C)(C)O3)cc1F [Example 46, 1-{2-Fluoro-4-[6,8,8-trimethyl-2-(3-oxa-8-azabicyclo[3.2.1]oct-8-yl)-5-oxo-5,6,7,8-tetrahydro-9-oxa-1,3,6-triazabenzocyclohepten-4-yl]phenyl}-3-methylurea]	26 nM	8880 nM	90 nM	24 nM	–
CCN1CC(C)(C)Oc2nc(N3CC4CCC(C3)O4)nc(-c3ccc(NC(=O)Nc4ccon4)c(F)c3)c2C1=O [Example 135, 1-{4-[6-Ethyl-8,8-dimethyl-2-(8-oxa-3-azabicyclo[3.2.1]oct-3-yl)-5-oxo-5,6,7,8-tetrahydro-9-oxa-1,3,6-triazabenzocyclohepten-4-yl]-2-fluorophenyl}-3-isoxazol-3-ylurea]	11 nM	6525 nM	112 nM	26 nM	–
CN1CC(C)(C)Oc2nc(N3C4CCC3COC4)nc(-c3ccc(NC(=O)Nc4ccccn4)cc3)c2C1=O [Example 41, 1-Pyridin-2-yl-3-{4-[6,8,8-trimethyl-2-(3-oxa-8-azabicyclo[3.2.1]oct-8-yl)-5-oxo-5,6,7,8-tetrahydro-9-oxa-1,3,6-triazabenzocyclohepten-4-yl]phenyl}urea]	35 nM	>10000 nM	122 nM	31 nM	–
CCN1CC(C)(C)Oc2nc(N3CC4CCC(C3)O4)nc(-c3ccc(NC(=O)OC[C@@H](C)O)c(F)c3)c2C1=O [Example 239, {4-[6-Ethyl-8,8-dimethyl-2-(8-oxa-3-azabicyclo[3.2.1]oct-3-yl)-5-oxo-5,6,7,8-tetrahydro-9-oxa-1,3,6-triazabenzocyclohepten-4-yl]-2-fluorophenyl}carbamic acid (R)-2-hydroxypropyl ester]	1070 nM	–	> 10000 nM	–	38%
CCN1CC(C)(C)Oc2nc(N3CC4CCC(C3)O4)nc(-c3ccc(NC(=O)Nc4ccn(C)n4)cc3)c2C1=O [Example 122, 1-{4-[6-Ethyl-8,8-dimethyl-2-(8-oxa-3-azabicyclo[3.2.1]oct-3-yl)-5-oxo-5,6,7,8-tetrahydro-9-oxa-1,3,6-triazabenzocyclohepten-4-yl]phenyl}-3-(1-methyl-1H-pyrazol-3-yl)urea]	–	–	340 nM	140 nM	–
CCN1CC(C)(C)Oc2nc(N3CC4CCC(C3)O4)nc(-c3ccc(NC(=O)N[C@@H](C)CO)c(F)c3)c2C1=O [Example 57, 1-{4-[6-Ethyl-8,8-dimethyl-2-(8-oxa-3-azabicyclo[3.2.1]oct-3-yl)-5-oxo-5,6,7,8-tetrahydro-9-oxa-1,3,6-triazabenzocyclohepten-4-yl]-2-fluorophenyl}-3-((S)-2-hydroxy-1-methylethyl)urea]	–	–	7580 nM	> 1000 nM	–
CCN1CC(C)(C)Oc2nc(N3CC4CCC(C3)O4)nc(-c3ccc(NC(=O)Nc4cnccn4)cc3)c2C1=O [Example 125, 1-{4-[6-Ethyl-8,8-dimethyl-2-(8-oxa-3-azabicyclo[3.2.1]oct-3-yl)-5-oxo-5,6,7,8-tetrahydro-9-oxa-1,3,6-triazabenzocyclohepten-4-yl]phenyl}-3-pyrazin-2-ylurea]	–	–	260 nM	86 nM	–
CCN1CC(C)(C)Oc2nc(N3CC4CCC(C3)O4)nc(-c3ccc(NC(=O)N[C@H](C)CO)c(F)c3)c2C1=O [Example 27, 1-{4-[6-ethyl-8,8-dimethyl-2-(8-oxa-3-azabicyclo[3.2.1]oct-3-yl)-5-oxo-5,6,7,8-tetrahydro-9-oxa-1,3,6-triazabenzocyclohepten-4-yl]-2-fluorophenyl}-3-((R)-2-hydroxy-1-methylethyl)urea]	394 nM	–	9150 nM	> 1000 nM	–
CN1CC(C)(C)Oc2nc(N3CC4CCC(C3)O4)nc(-c3ccc(NC(=O)Nc4ccc(N5C6CCC5COC6)nc4)c(F)c3)c2C1=O [Example 245, 1-{2-Fluoro-4-[6,8,8-trimethyl-2-(8-oxa-3-azabicyclo[3.2.1]oct-3-yl)-5-oxo-5,6,7,8-tetrahydro-9-oxa-1,3,6-triazabenzocyclohepten-4-yl]phenyl}-3-[6-(3-oxa-8-azabicyclo[3.2.1]oct-8-yl)pyridin-3-yl]urea]	63 nM	>10000 nM	–	67 nM	–
CCN1CC(C)(C)Oc2nc(N3CC4CCC(C3)O4)nc(-c3ccc(NC(=O)Nc4ccnc(N5CCC(F)(F)CC5)c4)c(F)c3)c2C1=O [Example 261, 1-(4,4-Difluoro-3,4,5,6-tetrahydro-2H-[1,2′]bipyridinyl-4′-yl)-3-{4-[6-ethyl-8,8-dimethyl-2-(8-oxa-3-azabicyclo[3.2.1]oct-3-yl)-5-oxo-5,6,7,8-tetrahydro-9-oxa-1,3,6-triazabenzocyclohepten-4-yl]-2-fluorophenyl}urea]	–	–	160 nM	20 nM	–
CCN1CC(C)(C)Oc2nc(N3CC4CCC(C3)O4)nc(-c3ccc(NC(=O)NCC(C)(C)O)c(F)c3)c2C1=O [Example 24, 1-{4-[6-ethyl-8,8-dimethyl-2-(8-oxa-3-azabicyclo[3.2.1]oct-3-yl)-5-oxo-5,6,7,8-tetrahydro-9-oxa-1,3,6-triazabenzocyclohepten-4-yl]-2-fluorophenyl}-3-(2-hydroxy-2-methylpropyl)urea]	1070 nM	–	> 10000 nM	> 1000 nM	–
CCN1CC(C)(C)Oc2nc(N3CC4CCC(C3)O4)nc(-c3ccc(NC(=O)Nc4cc(C)nc(C)n4)c(F)c3)c2C1=O [Example 90, 1-(2,6-Dimethylpyrimidin-4-yl)-3-{4-[6-ethyl-8,8-dimethyl-2-(8-oxa-3-azabicyclo[3.2.1]oct-3-yl)-5-oxo-5,6,7,8-tetrahydro-9-oxa-1,3,6-triazabenzocyclohepten-4-yl]-2-fluorophenyl}urea]	450 nM	–	2900 nM	–	64%
CCNC(=O)Nc1ccc(-c2nc(N3CCOCC3)nc3c2C(=O)NCC(C)(C)O3)cc1 [Example 94, 1-[4-(8,8-Dimethyl-2-morpholin-4-yl-5-oxo-5,6,7,8-tetrahydro-9-oxa-1,3,6-triazabenzocyclohepten-4-yl)phenyl]-3-ethylurea]	112 nM	7320 nM	–	> 10000 nM	–
Cc1cc(NC(=O)Nc2ccc(-c3nc(N4CC5CCC(C4)O5)nc4c3C(=O)N(C)CC(C)(C)O4)cc2F)ccn1 [Example 60, 1-{2-Fluoro-4-[6,8,8-trimethyl-2-(8-oxa-3-azabicyclo[3.2.1]oct-3-yl)-5-oxo-5,6,7,8-tetrahydro-9-oxa-1,3,6-triazabenzocyclohepten-4-yl]phenyl}-3-(2-methylpyridin-4-yl)urea]	58 nM	–	46 nM	17 nM	–
CCN1CC(C)(C)Oc2nc(N3CC4CCC(C3)O4)nc(-c3ccc(NC(=O)O[C@@H](C)CO)c(F)c3)c2C1=O [Example 61, {4-[6-Ethyl-8,8-dimethyl-2-(8-oxa-3-azabicyclo[3.2.1]oct-3-yl)-5-oxo-5,6,7,8-tetrahydro-9-oxa-1,3,6-triazabenzocyclohepten-4-yl]-2-fluorophenyl}carbamic acid (S)-2-hydroxy-1-methylethyl ester]	993 nM	–	4670 nM	> 1000 nM	–
COCCN1CC(C)(C)Oc2nc(N3CC4CCC(C3)O4)nc(-c3ccc(NC(=O)Nc4cccc(OC(F)F)c4)c(F)c3)c2C1=O [Example 220, 1-(3-Difluoromethoxyphenyl)-3-{2-fluoro-4-[6-(2-methoxyethyl)-8,8-dimethyl-2-(8-oxa-3-azabicyclo[3.2.1]oct-3-yl)-5-oxo-5,6,7,8-tetrahydro-9-oxa-1,3,6-triazabenzocyclohepten-4-yl]phenyl}urea]	348 nM	–	285 nM	30 nM	–
